Assays:
mdx mice = experiment: Mouse model of Duchenne Muscle Distrophy (whole body tension in mdx mice); type: in vivo; conditions: for WBT5: average of top 5 FPTs divided by body weight; for WBT10: average of top 10 FPTs divided by body weight
Procedure: The effects of the compound (6) on muscle function were assessed in mdx mice, which are genetically and biochemically homologous to human DMD. Animals of 4 weeks of age were treated for 3 months with the compound (6) at two different doses (30 and 100 mg/kg), which was incorporated into the diet. Control mdx and wild-type mice were fed the same diet without any drug. To determine if treatment with the compound would ameliorate muscle function in mdx mice, we evaluated the whole body tension which is a measure of the total muscle force. Indeed, this assay, well described in the Treat-NMD standard procedures for the preclinical studies in DMD, is used to determine the ability of mice to exert tension in a pulling maneuver that is elicited by stroking the tail. It is thought to reflect the maximal acute phasic force of the mouse can achieve to escape a potentially harmful event. Briefly, each mouse was placed at the entry of a polyvinyl chloride tube that had been lined interiorly with an aluminum screen, and the tail of the mouse was connected to a tension transducer. Forward pulling movements were elicited by a standardized stroke of the tail with serrated forceps and the corresponding forward pulling tensions (FPTs) were recorded using a Biopac recording system. Between 15 and 20 FPTs were generally recorded during each session. The whole body tension 5 (WBT5) and WBT10 were obtained by dividing the average of the top 5 or top 10 FPTs, respectively, by the body weight.
Table.1 Whole Body Tension (WBT) measured in wild-type and mdx control mice and in mdx mice treated with two different doses of NCX 1443 (30 and 100 mg/kg) incorporated in the diet. Data are presented as mean±standard deviation. For each group, n=8-10 mice. *p<0.05 vs mdx vehicle, ^###p<0.001 vs wild-type (wt) mice, 1-way ANOVA followed by Tuckey post-hoc test.

[1] = test system: rat L-NAME-induced hypertension; experiment: In vivo tolerance evaluation (L-NAME-induced hypertension after 5-day oral treatment); conditions: for Delta vs basal (mmHg): peak effect 3 hours
Procedure: Fasted male SD rats (250-300 g, n=3-5 per group), obtained from Harlan Italy (Correzzana, Milan, Italy) were orally treated with tested compounds or vehicle (DMSO:Methocel 1% 2/98 v/v) in a total volume of 4 ml/kg by gavage. At each time point (1, 3, 6 and 24 h) animals were deeply anesthetized with Zoletil® 100 (3 mg/kg), given intramuscularly. Thereafter, a pressure catheter (Samba Sensors, Harvard Apparatus, UK) was introduced into the common carotid artery for central blood pressure measurement. Pressure transducer was connected to a personal computer, in order to allow real time monitor of the pressure tracing. After 10 minutes of basal recording, L-NAME (50 mg/kg) was administered intraperitoneally and the effect on SBP monitored. When the SBP stabilized (5 minutes without variations) the recording was stopped. To further confirm that functional activity was NO-dependent, at each time point blood ^15N-nitrite levels were measured following the procedure described in Example 12.
To investigate whether the compound (6) induced nitrate tolerance, as observed for most of the drugs belonging to the nitrate class, the L-NAME-induced hypertension rat model described in Example 7 was performed following a repeated oral treatment. Rats were orally treated for 5 days with vehicle, compound (6) (100 mg/kg) or 5-ISMN (30 mg/kg). […] The experiments were performed at the peak effect (1 hour for 5-ISMN and 3 hours for Compound (6)), results are reported in Table 3.

[2] = 30 mg/kg/day in the diet for 3 months
[3] = 100 mg/kg/day in the diet for 3 months

## COC1=C(OC)C(=O)C(CCCCCCCCCCO[N+](=O)[O-])=C(C)C1=O [Compound (6), 10-(4,5-dimethoxy-2-methyl-3,6-dioxocyclohexa-1,4-dienyl)decyl nitrate]
Mdx mice; [2]
  WBT5: 3.6 ± 0.7^###
  WBT10: 3.0 ± 0.7^###
Mdx mice; [3]
  WBT5: 4.1 ± 0.8^###*
  WBT10: 3.4 ± 0.6^###*
Mdx mice; 30 and 100 mg/kg in the diet for 3 months
  effect on muscle function, in words: showed a dose-response trend in improving muscle function reaching a significant effect at the dose of 100 mg/kg
[1]; acute treatment, Comp. (6) 100 mg/kg oral
  Delta vs basal (mmHg): 14 ± 3.8 mmHg
[1]; compound (6) 100 mg/kg oral, 5 days
  efficacy against L-NAME-induced hypertension after 5-day treatment (nitrate tolerance), in words: counteracted L-NAME-induced hypertension after 5-day oral treatment
[1]; repeated (5 days) oral treatment, Comp. (6) 100 mg/kg
  Delta vs basal (mmHg): 27.8 ± 4 mmHg

From US9079821B2, “Quinone based nitric oxide donating compounds” (NICOX S.A., priority 2011, dated 2015)
